The results in this text go back to article PMC5706701, “Development of a homogenous high-throughput assay for inositol hexakisphosphate kinase 1 activity” (PLoS ONE, 2017).

For the experiment, the target named is T1, Human IP6K1 (Homo sapiens, UniProt Q92551).
T1 construct: GST (N, cleaved yes); made in house; host or cells: C43 E. coli, pGEX-6P-2
Kind of experiment: IP6K1 high-throughput screen of the Sigma LOPAC (ADP-Glo Max, single point).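 Further: final compound concentration 10µM in 5% DMSO.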 It counts as biochemical. (In ADP-Glo the light output rises with the ADP produced.)

The mark [1] stands for this setting: LOPAC single-point screen, ADP-Glo Max luminescence raw signal per well.
[2] abbreviates: LOPAC single-point screen, Z-score relative to plate average and StDev.
Where [3] appears, read: Sigma LOPAC single-point screen, ADP-Glo Max raw signal per well.
The mark [4] stands for this setting: Sigma LOPAC single-point screen, Z-score from plate average and StDev.
Setting [5] is: LOPAC single-point screen, ADP-Glo Max raw signal per well.
Where [6] appears, read: LOPAC single-point screen, Z-score from raw signal with plate average and StDev.
Setting [7] is: LOPAC single-point screen, Z-score against plate average and StDev.
[8] abbreviates: LOPAC single-point screen, Z-score from plate average and StDev.

Where a name gives a salt, the structure may show the parent alone. Read-outs that look alike come from different tables or passages of the source.

T1 sequence (Q92551 whole entry): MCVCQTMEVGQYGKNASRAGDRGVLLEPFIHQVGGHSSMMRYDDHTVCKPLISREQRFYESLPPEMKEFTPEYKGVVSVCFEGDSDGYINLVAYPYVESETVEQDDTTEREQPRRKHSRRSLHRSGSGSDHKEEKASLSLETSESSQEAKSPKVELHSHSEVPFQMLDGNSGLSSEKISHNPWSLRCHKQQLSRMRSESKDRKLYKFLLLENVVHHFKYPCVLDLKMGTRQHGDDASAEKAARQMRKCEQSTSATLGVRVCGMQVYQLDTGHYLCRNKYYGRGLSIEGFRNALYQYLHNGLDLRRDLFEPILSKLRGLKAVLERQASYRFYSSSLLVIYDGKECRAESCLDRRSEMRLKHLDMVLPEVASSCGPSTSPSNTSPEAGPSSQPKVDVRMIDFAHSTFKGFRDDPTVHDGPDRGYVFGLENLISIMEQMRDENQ

As for `Oc1ccc2c3c1O[C@H]1[C@@H](O)CC[C@@]4(O)[C@@H](C2)N(CC2CCC2)CC[C@]314` [Nalbuphine hydrochloride], the “Raw Signal” value is reported as 53889 and the Z-score is reported as -0.08477.
As for `CCCCCCCC/C=C\CCCCCCCC(=O)NCCc1ccc(O)c(O)c1` [N-Oleoyldopamine], under setting [1], the “Raw Signal” value is listed as 53486. This compound also displayed a Z-score under setting [2] of -0.493.
`CC(=O)O[C@]1(C(C)=O)CC[C@H]2[C@@H]3C=C(Cl)C4=CC(=O)[C@@H]5C[C@@H]5[C@]4(C)[C@H]3CC[C@@]21C` [Cyproterone acetate]: the “Raw Signal” value under setting [3] is 63165. This compound also yielded a Z-score under setting [4] of 0.925.
`CC(=O)NCCc1c[nH]c2ccccc12` [N-Acetyltryptamine]: the “Raw Signal” value under setting [1] came out at 53398. Besides, under setting [2], the Z-score was -0.7952.
The like results for `O=c1cc(O)cc(/C=C/c2ccc(O)c(O)c2)o1` [Hispidin] were, in that order, 48484 and -1.357.
As to `CN1[C@@H]2CC[C@H]1C[C@@H](OC(=O)C(CO)c1ccccc1)C2` (stereo partly shown) [Atropine sulfate], the “Raw Signal” value under setting [5] came out at 57358. Also, the Z-score under setting [6] is -0.09777.
As to (+)-Cyclazocine, the “Raw Signal” value under setting [5] was 53235. Under setting [6], this compound displayed a Z-score of -0.3924.
In the same order, the values of `CCCCCCCCCCC/C=C\C(C)(C)/C=C\CCCC(=O)O` [7,7-Dimethyl-(5Z,8Z)-eicosadienoic acid] are 53422 and -0.3544.
On to `NCCCCCCCCCCN` [1,10-Diaminodecane], for which, under setting [6], the Z-score is on record as -0.1121.
As to `CNCC(O)c1ccc(O)cc1` (racemic) [(±)-Synephrine], the “Raw Signal” value under setting [5] is reported as 56579. Also, the Z-score under setting [7] came out at 0.1079.
For the compound `CC(C)[C@@H]1NC(=O)[C@H](CCCCN)NC(=O)[C@@H](Cc2c[nH]c3ccccc23)NC(=O)[C@H](Cc2ccc(O)cc2)NC(=O)[C@H](C)N(C)C(=O)[C@H](Cc2ccccc2)NC1=O` [Seglitide], the “Raw Signal” value under setting [5] came out at 55030. The compound also had a Z-score under setting [6] of -0.1931.
Take `CC(N)C(O)c1ccc(O)c(O)c1` (single isomer, unassigned; (-)) [(-)-alpha-Methylnorepinephrine]: the “Raw Signal” value under setting [1] is reported as 45337. This compound gave a Z-score under setting [2] of -1.996.
On to `Nc1nc(Cl)nc2c1ncn2[C@@H]1O[C@H](COP(=O)(O)OP(=O)(O)OP(=O)(O)O)C(O)C1O` (stereo in doubt), for which the “Raw Signal” value under setting [1] stood at 49196. The compound also displayed a Z-score under setting [2] of -1.213.
Turning to `CN1C[C@H](O)[C@@H](O)[C@H](O)[C@H]1CO` [N-Methyl-1-deoxynojirimycin], under setting [5], the “Raw Signal” value is given as 53171. For the same compound, the Z-score under setting [6] is -0.2054.
For the compound `CC(=O)[C@H]1CC[C@H]2[C@@H]3CC[C@H]4C[C@H](O)CC[C@]4(C)[C@H]3C(=O)C[C@]12C` [5alpha-Pregnan-3alpha-ol-11,20-dione], the “Raw Signal” value under setting [3] was found to be 56964. Besides, under setting [4], the Z-score worked out at 0.4319.
For the compound `CC#C[C@]1(O)CC[C@H]2[C@@H]3CCC4=CC(=O)CCC4=C3[C@@H](c3ccc(N(C)C)cc3)C[C@@]21C` [Mifepristone], the “Raw Signal” value under setting [3] amounted to 60991. In addition, the Z-score under setting [4] came out at 1.109.
`CC(C)c1cccc(C(C)C)c1O` [Propofol]: the “Raw Signal” value stood at 48098 and the Z-score is given as -1.436.
Turning to `O=C(OCCN1CCCCC1)c1c[nH]c2ccccc12` [SB 203186], the “Raw Signal” value under setting [1] was 49486. Moreover, the Z-score under setting [2] is -1.154.
With `COc1ccc(CCN)cc1O.Cl`, the “Raw Signal” value under setting [5] came to 55159. Further, the Z-score under setting [7] is listed as -0.001632.
On to `CN(C)CC[C@@H](c1ccc(Cl)cc1)c1ccccn1` [(+)-Chlorpheniramine maleate], for which, under setting [5], the “Raw Signal” value worked out at 57307. Further, the Z-score under setting [6] was -0.1068.
Consider `C[C@]12CCC(=O)C=C1CC[C@@H]1[C@@H]2CC[C@]2(C)C(=O)CC[C@@H]12` [4-Androstene-3,17-dione], for which, under setting [5], the “Raw Signal” value came to 58885. Besides, the Z-score under setting [7] was 0.1712.
For the compound `Nc1nc2[nH]c(=O)cnc2c(=O)[nH]1` [Isoxanthopterin], under setting [3], the “Raw Signal” value was 59100. The Z-score under setting [4] was found to be 0.7908.
On to `Cn1ccc2cc3c(cc21)CCN3C(=O)Nc1cccnc1` [SB 206553 hydrochloride], for which the “Raw Signal” value under setting [5] was found to be 56981. The compound also gave a Z-score under setting [7] of 0.186.
Consider `COc1[nH]c2ccc(F)cc2c1C(=O)OCC1CCN(CCNS(C)(=O)=O)CC1.NS(=O)(=O)O` [GR 125487 sulfamate salt], for which, under setting [1], the “Raw Signal” value worked out at 51618. The compound also came in with a Z-score under setting [2] of -0.7208.
Regarding `CC(N/C(=N\C#N)Nc1ccncc1)C(C)(C)C` (stereo not shown) [Pinacidil], under setting [5], the “Raw Signal” value was determined as 55394. The compound also had a Z-score under setting [6] of -0.1224.
`Cc1cc(C)c(NC(=O)C[C@H](CC(=O)O)c2cccc3ccccc23)c(C(=O)N2CCC3(CCCC3)CC2)c1` [CR 2945]: the “Raw Signal” value under setting [5] is on record as 55023. Further, the Z-score under setting [7] came out at 0.1058.
`COc1cc(C(O)C(=O)O)ccc1O` (racemic) [(±)-Vanillylmandelic acid]: under setting [1], the “Raw Signal” value worked out at 52849. Also, under setting [2], the Z-score is -0.4708.
In the case of `CSc1ccc(C(=O)c2[nH]c(=O)[nH]c2C)cc1` [Enoximone], the “Raw Signal” value under setting [1] is listed as 64614. Under setting [8], the Z-score is listed as 1.919.
On to `CC(=O)NNC(=O)N1Cc2ccccc2Oc2ccc(Cl)cc21` [SC 19220], for which the “Raw Signal” value under setting [3] is 57783. This compound returned a Z-score under setting [4] of 0.3418.
In the case of `C=CCN1CC[C@]23c4c5ccc(O)c4O[C@H]2C(=O)CC[C@@]3(O)[C@H]1C5` [Naloxone hydrochloride], the “Raw Signal” value under setting [5] was 55041. For the same compound, under setting [7], the Z-score stood at 0.1088.
Turning to `CC1=C(C(=O)O)N2C(=O)[C@@H](NC(=O)[C@H](N)c3ccccc3)[C@H]2SC1.O` [Cephalexin hydrate], under setting [3], the “Raw Signal” value turned out to be 61524. Under setting [4], this compound gave a Z-score of 0.636.
Take `CCCC(CCC)C(=O)O` [Valproic acid sodium]: the “Raw Signal” value under setting [1] is 64941. This compound came in with a Z-score under setting [8] of 1.772.
For the compound `S=C(Nc1ccccc1)Nc1nccs1` [1-Phenyl-3-(2-thiazolyl)-2-thiourea], under setting [5], the “Raw Signal” value stood at 53752. Besides, the Z-score under setting [6] is listed as -0.1078.
In the same order, the values of Foliosidine are 53530 and -0.3325.
As for `Nc1nc(N)c2nc(-c3ccccc3)c(N)nc2n1` [Triamterene], under setting [1], the “Raw Signal” value is 65476. Also, the Z-score under setting [8] was determined as 1.836.
Regarding `CC(C)(C(=O)O)c1ccc(C(O)CCCN2CCC(C(O)(c3ccccc3)c3ccccc3)CC2)cc1` (stereo not shown) [Fexofenadine hydrochloride], the “Raw Signal” value under setting [3] amounted to 58731. This compound returned a Z-score under setting [4] of 0.7238.
`O=C(c1cc(O)c(O)c([N+](=O)[O-])c1)c1ccccc1F` [Ro 41-0960]: under setting [3], the “Raw Signal” value is given as 58523. For the same compound, the Z-score under setting [4] amounted to 0.4855.
As for `C[C@H](Cc1ccccc1)Nc1ncnc2c1ncn2[C@@H]1O[C@H](CO)[C@@H](O)[C@H]1O` [R(-)-N6-(2-Phenylisopropyl)adenosine], the “Raw Signal” value under setting [3] was found to be 58463. Further, the Z-score under setting [4] is recorded as 0.6838.
In the same order, the values of `Cn1cc(C2=C(c3ccc(Cl)cc3Cl)C(=O)NC2=O)c2ccccc21` [SB 216763] are 56670 and 0.3825.
Turning to `OC(CN1CCN(c2cccc(Cl)c2)CC1)C(c1ccccc1)c1ccccc1` (stereo not shown) [BRL 15572], the “Raw Signal” value under setting [5] turned out to be 57949. Besides, the Z-score under setting [7] turned out to be 0.006323.
